Data reported in paper PMC10044725, “Antioxidant, Anti-Inflammatory and Anti-Diabetic Activities of Tectona grandis Methanolic Extracts, Fractions, and Isolated Compounds” (Antioxidants, 2023).
Marks after values point to notes of the source that are not given here.

Assays:
[1] = DPPH free radical scavenging assay; details: isolated compounds; half scavenging concentration; read-out: DPPH Assay SC50
Description: The DPPH free radical scavenging activities of T. grandis methanolic extract, different fractions and its compounds were conducted according to Dr. Yang et al.. […] The absorbance was measured using a microplate reader at 517 nm, and ascorbic acid was used as a positive control. The DPPH scavenging activity was calculated according to the following formula: Scavenging activity (%) = [1 − (A1 − A2)/(A3 − A4)] × 100% (1) where A1 is the OD value of the tested samples, A2 is the OD value of the sample control, A3 is the OD value of the negative control and A4 is the OD value of the blank control. The analysis was performed in triplicates and the results were described as SC50 values.

[2] = ABTS radical cation scavenging assay (Trolox equivalent); details: compounds at 50 μM
Description: The ABTS radical cation (ABTS•+) scavenging activities were conducted in accordance with the instructions for the ABTS kit. The total antioxidant activity values were estimated using the Trolox equivalent antioxidant capacity test. The detection concentration of methanolic extract and different fractions was 80 μg/mL, and the detection concentration of compounds (1–23) was 50 μM. […] Then, 190 μL of ABTS working reagent was mixed with 10 μL sample and incubated at room temperature for 5 min. The absorbance was then measured using a microplate reader at 734 nm, and the scavenging activity was calculated according to Equation (2). The blank control group used DMSO to replace the sample. […] The analysis was performed in triplicates, 1.424, 0.0012 was a constant.

TNF-α = TNF-α secretion in LPS-stimulated RAW 264.7 macrophages (ELISA); type: cell-based, mouse; details: 40 µM, LPS 1 µg/mL, 48 h, vs model control (p < 0.01)
Description: (§1) In order to increase cytokine production, macrophages were treated with LPS at a final concentration of 1 µg/mL, and then with T. grandis compounds at 40 µM. The compounds were solubilized in DMEM medium containing 0.1% DMSO. Dexamethasone was employed as a positive control (5 µg/mL). A centrifuge was used to separate the supernatant from the cells after 48 h of incubation, with three replicates per group. Quantification of TNF-α, IL-1β and IL-6 secretion was achieved by following the ELISA manufacturer's instructions. Then, absorbance was measured at 450 nm. Relative TNF-α, IL-1β and IL-6 expression was calculated according to Equation (4). Following the inflammatory factor test, cell viability was detected by CellTiter96® Aqueous One Solution Cell Proliferation Assay. Then, 20 μL/well CellTiter96® Aqueous One Solution Cell Growth Assay reagent was added to the plate and incubated at 37 °C for 8 h, absorbance was measured at […] and relative cell viability was calculated according to Equation (5). Relative content of inflammatory cytokines (%) = (A1/A2)/A3 × 100%(4) where A1 is the concentrations value of inflammatory cytokines of each group, A2 is the relative cell viability of each group (model group is 100) and A3 is the concentration of inflammatory cytokines of model group. Cell viability rate (%) = B1/B2 × 100%(5) where B1 is the OD value of each fraction group or positive control group and B2 is the OD value of the model control.

IL-1β = IL-1β secretion in LPS-stimulated RAW 264.7 macrophages (ELISA); type: cell-based, mouse; details: 40 µM, LPS 1 µg/mL, 48 h, vs model control (p < 0.0001)
Description: as §1

IL-6 = IL-6 secretion in LPS-stimulated RAW 264.7 macrophages (ELISA); type: cell-based, mouse; details: 40 µM, LPS 1 µg/mL, 48 h, vs model control (p < 0.05)
Description: as §1

α-glucosidase = assay: α-Glucosidase inhibition assay (pNPG); type: biochemical; details: for Inhibitory Rate (%): at a concentration of 50 µM; for IC50: compounds
Description: The inhibitory effect on α-glucosidase was measured according to the previous report method with slight modifications. The 20 mM sample dissolved in DMSO was diluted to 50 μM in PBS, 10 μL sample was mixed with 50 μL of 0.1 μ/mL α-glucosidase solution in 0.1 M phosphate buffer (pH 6.5) in a 96-well microplate and 10 μL PBS was used as a blank control. The mixture was incubated at 37 °C for 10 min before adding 40 µL of 5 mM 4-nitrophenyl-α-D-glucopyranoside to each well. After 30 min of incubation at 37 °C, the reaction was terminated by adding 50 μL of 0.1 M Na2CO3 to this mixture. The released 4-nitrophenol absorbance measurements were carried out using a microplate reader (SpectraMax190, USA) at 405 nm.

[3] = Ferric reducing antioxidant power (FRAP) assay; details: compounds at 50 μM; Trolox equivalent
Description: The FRAP assay was determined in accordance with the instructions for the FRAP kit. The total antioxidant activity values were estimated using the Trolox equivalent antioxidant capacity test. Initially, the detection concentration of methanolic extract and different fractions was 80 μg/mL, and the detection concentration of compounds (1–23) was 50 μM. Then, 190 μL of FRAP working reagent was mixed with 10 μL sample and incubated at room temperature for 20 min. The absorbance was then measured using a microplate reader at 593 nm, and the scavenging activity was calculated according to Equation (3). The blank control group used DMSO to replace the sample. […] The analysis was performed in triplicates, 0.8054, 0.0134 was a constant.

pBR322 DNA = assay: Prevention of AAPH-induced DNA oxidative damage; details: AAPH 20 mM; p < 0.0001 vs model
Description: The effects of T. grandis methanolic extract, different fractions and its compounds 15, 19 and 23 on the prevention of DNA oxidative damage were carried out using the method of Han et al.. Initially, 8 μL pBR322 DNA (50 μg/mL) in PBS (0.1 M, pH 6.8) was mixed with different concentrations of T. grandis fractions and its compounds (12 μL) and incubated in water at 37 °C for 30 min. Then, 5 μL AAPH (20 mM) was added to the mixture and the reaction continued for 60 min. The control group used the same volume of PBS (0.1 M, pH 6.8) to replace AAPH. The pre-treated samples were mixed with 5 × DNA loading buffer, and the mixture (8 μL) was taken for 1.0% agarose gel electrophoresis for 25 min. After electrophoresis, the gels were stained with ethidium bromide for 20 min. Finally, images were taken using a DNA gel imaging system (ChampChemi 610, Beijing sage creation Co., Ltd. Beijing, China).

BSA = assay: Prevention of AAPH-induced protein oxidative damage; set-up: species or system Bovine; details: AAPH 160 mM; residual BSA
Description: The protective activities of T. grandis methanolic extract, different fractions and its compounds 15 and 23 on protein oxidative damage were carried out using the method of Yang et al.. Initially, 20 μL BSA solutions (1 mg/mL) in PBS (0.1 M, pH 6.8) were mixed with different concentrations of fractions (40 μL) and compounds (40 μL) and incubated in water at 37 °C for 30 min. Then, 40 μL AAPH (160 mM) was added to the mixture and the reaction continued for 4 h. The control group used the same volume of PBS (0.1 M, pH 6.8) to replace AAPH. The pre-treated samples were added to 5 × SDS loading buffer and treated in water at 95 °C for 15 min. […] After electrophoresis, the gels were stained with Coomassie brilliant blue R-250 dye (0.25%, w/v), and then the gels were decolorized with the decolorizing solution. Finally, images were taken using the SDS-PAGE gel imaging system (ChampChemi 610, China) and the grayscale of Western blot was analyzed using Image J software.

EC50 [1] [µM]	Inhibitory Rate (%) (α-glucosidase)	IC50 (α-glucosidase) [µM]	Structure (SMILES)	ABTS Assay [2]	effect on TNF-α inflammatory factor level (TNF-α)	effect on IL-1β inflammatory factor level (IL-1β)	effect on IL-6 inflammatory factor expression (IL-6)	FRAP Assay [3]	concentration at which a protective effect against DNA oxidative damage begins (pBR322 DNA) [mM]	concentration at which a protective effect against protein oxidative damage begins (BSA) [µM]
8.09 ± 1.05	10.62 ± 1.39 ^d %	> 50	O=c1cc(-c2ccc(O)c(O)c2)oc2cc(O[C@@H]3O[C@H](CO)[C@@H](O)[C@H](O)[C@H]3O)cc(O)c12 [Compound 1, luteolin-7-O-β-D-glucoside]	0.08 ± 0.01 ^d mmol Trolox/L	could decrease	significant decrease	significant activities in reducing the expression			
3.56 ± 0.53	13.84 ± 0.93 ^d %	> 50	COC(=O)c1cc(O)c2c(c1)C(=O)c1ccccc1C2=O [Compound 13, 3-carbomethoxy-1-hydroxy-9,10-anthraquinone]	0.04 ± 0.00 ^d mmol Trolox/L		significant decrease	significant activities in reducing the expression	0.01± 0.01 ^c mmol Trolox/L		
1.99 ± 0.34	18.30 ± 2.22 ^cd %	> 50	C[C@@H]1O[C@@H](O[C@@H]2[C@@H](O)[C@H](OCCc3ccc(O)c(O)c3)O[C@H](CO)[C@H]2OC(=O)/C=C/c2ccc(O)c(O)c2)[C@H](O)[C@H](O)[C@H]1O [Compound 15, verbascoside]	1.10 ± 0.77 ^a mmol Trolox/L				1.22 ± 0.11 ^a mmol Trolox/L	0.6	40
8.45 ± 0.57	22.91 ± 1.10 ^c %	> 50	CC1CCC2(C(=O)OC3OC(CO)C(O)C(O)C3OC3OC(CO)C(O)C(O)C3O)CCC3(C)C(=CCC4C5(C)CC(O)C(O)C(C)(CO)C5CCC43C)C2C1(C)O [Compound 18, 2β,3β,19α,23-tetrahydroxy-urs-12-en-28-O-[β-D-glucopyranosyl (1-2)-β-D-glucopyranosyl] ester]		could decrease	significant decrease	significant activities in reducing the expression	0.39 ± 0.00 ^b mmol Trolox/L		
